Reference: patent US20240261288A1, “COMBINATION OF A 3-(IMIDAZOL-4-YL)-4-(AMINO)-BENZENES[…] INHIBITOR WITH AN EGFR INHIBITOR AND/OR MEK INHIBITOR FOR USE IN THE TREATMENT OF LUNG CANCER” (lkena Oncology, Inc., priority 2021, published 2024)

Experiments:
[1] = system: A2058 cells (BRAF mutant); experiment: Apoptosis induction, caspase-3/7 activation (Incucyte live-cell imaging); type: cell-based; settings: T-A-32 in combination with trametinib, compared with either single agent treatment alone
From the text: (§1) This study determined the ability of T-A-32 to enhance apoptosis in combination with osimertinib and trametinib in epidermal growth factor receptor (EGFR) mutant cell lines, and in combination with trametinib in Kirsten rat sarcoma viral oncogene (KRAS) or v raf murine sarcoma viral oncogene homolog B (BRAF) mutant cancer cell lines.
(§2) Three EGFR mutant cell lines (HCC4006, HCC827, and NCI-H1975), 5 KRAS mutant cell lines (A549, HCT116, Capan-2, Calu-1, and LoVo), and 1 BRAF mutant cell line (A2058) from multiple cancer indications were tested. The EGFR mutant cell lines were treated with single agent T-A-32, osimertinib (an EGFR inhibitor), or trametinib (a mitogen-activated protein kinase kinase [MEK] inhibitor); a dual combination of osimertinib and trametinib; or a triple combination of T-A-32, osimertinib, and trametinib in a 96-well plate format. The KRAS and BRAF mutant cell lines were treated with single agent T-A-32 or trametinib, or a dual combination of T-A-32 and trametinib in a 96-well plate format. Apoptosis induction was assessed by monitoring the activation of caspase-3/7 using a probe that generates bright green fluorescence upon DEVD peptide cleavage by activated caspase-3/7 as an early indicator of apoptosis every 2 hours for approximately 96 hours.
(§3) All cell lines were cultured in the recommended medium supplemented with 10% fetal bovine serum (FBS) at 37° C. in a humidified atmosphere containing 5% CO2 until they were at least 80% confluent as follows: • HCC4006, HCC827, and NCI-H1975 cells in Roswell Park Memorial Institute 1640+10% FBS • A2058 cells in Dulbecco's Modified Eagle Medium+10% FBS • HCT-116, Capan-2, and Calu-1 cells in McCoy's 5A+10% FBS • LoVo and A549 cells in F 12K+10% FBS
(§4) Cells were trypsinized, counted by an automated cell counter, and added to all wells of a 96-well plate at 3000 cells/well in 100 μL of the appropriate medium (1 plate for each cell line). The next day, compounds were diluted in DMSO to 1000× concentration. CELLEVENT Caspase-3/7 Green READYPROBE Reagent was prepared as per manufacturer's instructions by adding 1 drop of READYPROBE reagent into 1 mL of the appropriate medium. Compounds were diluted in the READYPROBE/medium mixture to 3× concentration and 50 μL were added to the cells. The plates were subsequently scanned every 2 hours using an Incucyte S3 Live-Cell Analysis System (Sartorius) for a total of 72 to 136 hours depending on the cell line. Plates were maintained at 37° C. in a humidified atmosphere containing 5% CO2 over the course of experiment.

[2] = system: Calu 1 cells (KRAS mutant); experiment: as above; type: cell-based; settings: T-A-32 in combination with trametinib, compared with either single agent treatment alone
From the text: as §1, §2, §3, §4

[3] = system: Capan 2 cells (KRAS mutant); experiment: as above; type: cell-based; settings: T-A-32 in combination with trametinib, compared with either single agent treatment alone
From the text: as §1, §2, §3, §4

[4] = system: HCC4006 cells (EGFR mutant NSCLC); experiment: as above; type: cell-based; settings: triple combination of T-A-32, osimertinib, and trametinib, compared with the 3 single agent treatments and the dual combination of osimertinib and trametinib
From the text: as §1, §2, §3, §4

[5] = system: HCC827 cells (EGFR mutant NSCLC); experiment: as above; type: cell-based; settings: triple combination of T-A-32, osimertinib, and trametinib, compared with the 3 single agent treatments and the dual combination of osimertinib and trametinib
From the text: as §1, §2, §3, §4

A549 cells (KRAS mutant) = experiment: as above; type: cell-based, human; settings: T-A-32 in combination with trametinib, compared with either single agent treatment alone
From the text: as §1, §2, §3, §4

[6] = system: HCT-116 cells (KRAS mutant); experiment: as above; type: cell-based, human; settings: T-A-32 in combination with trametinib, compared with either single agent treatment alone
From the text: as §1, §2, §3, §4

LoVo cells (KRAS mutant) = experiment: as above; type: cell-based, human; settings: T-A-32 in combination with trametinib, compared with either single agent treatment alone
From the text: as §1, §2, §3, §4

[7] = system: NCI-H1975 cells (EGFR mutant NSCLC); experiment: as above; type: cell-based, human; settings: triple combination of T-A-32, osimertinib, and trametinib, compared with the 3 single agent treatments and the dual combination of osimertinib and trametinib
From the text: as §1, §2, §3, §4

[8] = system: H1975 human non-small cell lung xenografts; experiment: H1975 EGFR mutant lung cancer xenograft mouse model, tumor growth; type: in vivo, female Nu/Nu mice; settings: for TGI (tumor growth inhibition): Day 18, vs vehicle control, p<0.001
Procedure: This study determined the in vivo antitumor activity of T-A-32 administered in combination with osimertinib, an EGFR inhibitor and trametinib, a MEK inhibitor. This combination was tested in immunodeficient nude mice (Nu/Nu) bearing H1975 human non-small cell lung xenografts. H1975 was chosen as a xenograft model because H1975 harbors EGFR T790M/[…]L858R mutations. T970M is well known point mutation for osimertinib resistance and L858R is also known EGFR activation mutation.
Six- to 9-week-old female Nu/Nu mice were inoculated SC with 2×10^6 H1975 human non-small cell lung tumor cells in the right flank. Tumor growth was monitored twice per week using vernier calipers and the mean tumor volume (MTV) was calculated. When the MTV reached approximately 177 mm^3, animals were randomized into treatment groups (n=10/group) and dosed orally (PO) with either vehicle control (5% DMSO+95% PEG 400 (Vehicle 1)+0.5% hydroxypropyl methyl cellulose and 0.2% Tween-80 (Vehicle 2)+1% Tween 80 (Vehicle 3)) or T-A-32 at 75 mg/kg, osimertinib at 2.5 mg/kg, or trametinib at 1 mg/kg QD for 18 days.
(§5) Treatments started on Day 0, tumor size and body weight were measured twice per week, and the study was terminated when the vehicle control tumors reached a mean of approximately 1600 mm^3. Percent TGI was calculated on Day 18 when the control MTV reached the maximum allowable tumor volume. The mean maximum body weight change was determined for each group.

[9] = system: HCT-116 human colorectal carcinoma xenografts; experiment: HCT116 KRAS G13D mutant colorectal carcinoma xenograft mouse model, tumor growth; type: in vivo, female Nu/Nu mice; settings: T-A-32 PO 75 mg/kg QD in combination with trametinib 0.5 mg/kg; Day 14; vs vehicle control; p<0.0001
Procedure: (§6) This study determined the in vivo antitumor activity of T-A-32 administered in combination with trametinib, a MEK inhibitor. This combination was tested in immunodeficient nude mice (Nu/Nu) bearing HCT-116 human colorectal carcinoma xenografts. HCT116 was chosen as a xenograft model because HCT116 harbors a the KRAS G13D mutation.
(§7) Six- to eight-week-old female Nu/Nu mice were inoculated subcutaneously with 1×10^6 HCT116 human colorectal carcinoma tumor cells in the right flank. Tumor growth was monitored twice per week using vernier calipers and the mean tumor volume (MTV) was calculated. When the MTV reached approximately 150-200 mm^3, approximately ten (10) days after cell inoculation, animals were randomized into treatment groups (n=10/group) and dosed orally (PO) with either vehicle control (5% DMSO+95% PEG 400 (Vehicle 1)+0.5% hydroxypropyl methyl cellulose and 0.2% Tween-80 (Vehicle 2)) or T-A-32 at 75 mg/kg, or trametinib at 0.5 mg/kg once per day (PO) for fourteen (14) days.
as §5, with “Tumor” for “Treatments started on Day 0, tumor”, “twice,” for “twice per week,”, “2000” for “1600”, “14” for “18”

[10] = system: A549 human lung cancer xenografts; experiment: A549 KRAS G12S mutant lung cancer xenograft mouse model, tumor growth; type: in vivo, female Nu/Nu mice; settings: T-A-32 PO 75 mg/kg QD in combination with trametinib 1.0 mg/kg; Day 25; vs vehicle control; p<0.0001
Procedure: as §6, with “A549” for “HCT-116”, “lung cancer” for “colorectal carcinoma”, “A549” for “HCT116”, “A549 cells harbor” for “HCT116 harbors a”, “G12S” for “G13D”
as §7, with “with 5×10^6 A549” for “with 1×10^6 HCT116”, “human lung cancer” for “human colorectal carcinoma tumor”, “approximately eight (8)” for “approximately ten (10)”, “groups (n=8/group)” for “groups (n=10/group)”, “at 1.0” for “at 0.5”, “for twenty-five (25)” for “for fourteen (14)”
Tumor size and body weight were measured twice per week, and all treatments ended on day 25. Percent TGI was calculated on Day 25 when the control MTV reached the maximum allowable tumor volume. The mean maximum body weight change was determined for each group.

[11] = system: LoVo human colorectal adenocarcinoma xenografts; experiment: LoVo KRAS G12D mutant colorectal adenocarcinoma xenograft mouse model, tumor growth; type: in vivo, female Nu/Nu mice; settings: T-A-32 PO 75 mg/kg QD in combination with trametinib 1.0 mg/kg; Day 28; vs vehicle control; p<0.0001
Procedure: as §6, with “LoVo” for “HCT-116”, “adenocarcinoma” for “carcinoma”, “LoVo” for “HCT116”, “LoVo cells harbor” for “HCT116 harbors a”, “G12D” for “G13D”
as §7, with “with 5×10^6 LoVo” for “with 1×10^6 HCT116”, “colorectal adenocarcinoma” for “colorectal carcinoma tumor”, “approximately eight (8)” for “approximately ten (10)”, “at 1.0” for “at 0.5”, “for twenty-eight (28)” for “for fourteen (14)”
Tumor size and body weight were measured twice per week, and all treatments ended on day 28. Percent TGI was calculated on Day 28 when the control MTV reached the maximum allowable tumor volume. The mean maximum body weight change was determined for each group.

Compound | apoptosis (caspase-3/7 activation) [1] | apoptosis (caspase-3/7 activation) [2] | apoptosis (caspase-3/7 activation) [3] | apoptosis (caspase-3/7 activation) [4] | apoptosis (caspase-3/7 activation) [5] | apoptosis (caspase-3/7 activation) (A549 cells (KRAS mutant)) | apoptosis (caspase-3/7 activation) [6] | apoptosis (caspase-3/7 activation) (LoVo cells (KRAS mutant)) | apoptosis (caspase-3/7 activation) [7] | TGI (tumor growth inhibition) ([8]; T-A-32 PO 75 mg/kg QD in combination with osimertinib (2.5 mg/kg)) | TGI (tumor growth inhibition) ([8]; T-A-32 in combination with both trametinib and osimertinib, PO QD) | tumor regression ([8]; triple combination of T-A-32, osimertinib, and trametinib, H1975 xenograft) | TGI (tumor growth inhibition) [9] | TGI (tumor growth inhibition) [10] | TGI (tumor growth inhibition) [11] | TGI (tumor growth inhibition) ([8]; trametinib 1 mg/kg in combination with osimertinib 2.5 mg/kg, PO QD)
CNS(=O)(=O)c1ccc(NCc2ccc(C(F)(F)F)cc2)c(-c2cn(C)cn2)c1 [T-A-32, N-methyl-3-(1-methyl-1H-imidazol-4-yl)-4-((4-(trifluoromethyl)benzyl)amino)benzenesulfonamide] | enhanced apoptosis | enhanced apoptosis | enhanced apoptosis | enhanced apoptosis | enhanced apoptosis | enhanced apoptosis | enhanced apoptosis | enhanced apoptosis | enhanced apoptosis | 88% | 99% | complete regressions | 78% | 83% | 75% | –
CC(=O)Nc1cccc(-n2c(=O)n(C3CC3)c(=O)c3c(Nc4ccc(I)cc4F)n(C)c(=O)c(C)c32)c1 [trametinib, reference compound] | – | – | – | – | – | – | – | – | – | – | – | – | – | – | – | 71%
